# Measurements: PMC2694832, “Pharmacokinetics, tissue distribution and mass balance of radiolabeled dihydroartemisinin in male rats” (Malaria Journal, 2009)
# Assay: Metabolic profile of [^14C] DHA (free, glucuronide and other conjugation fractions)
# Format: in vivo, rats
# Conditions: for drug conjugation of the dose: rats i.v. 3 mg/20 μCi/kg
# Procedure: About 2 ml of plasma and urine, and 1 – 2 g of faeces were used. Conjugates were hydrolyzed by glucuronidase (1000 FU/ml, Sigma-Aldrich, St. Louis, MO) at pH 4.6, 38°C for 24 hours. Active enzyme was checked by phenophthaleinglucuronide at the end of incubation. Urine and faecal samples were incubated for 48 hours and fresh enzyme was added after 24 hours. Total radioactivity in free, conjugated, and the remaining aqueous fractions were measured with liquid scintillation counters. Protein precipitates were dissolved in Solvable^R (200 mg in 1 ml) and counted for radioactivity after addition of scintillation cocktail.
compound,measurement,setting,value
"C[C@@H]1CC[C@H]2[C@@H]([14CH3])C(O)O[C@@H]3O[C@@]4(C)CC[C@@H]1[C@]32OO4 (stereo partly drawn) [[^14C] DHA, [16-^14C] DHA]",ratio of conjugation to free,"plasma, 10 minutes",1.86
same,ratio of conjugation to free,"plasma, 1 hour after dosing",4.48
same,ratio of conjugation to free,"plasma, 192 hours",15.1
same,ratio of conjugation to free,"plasma, within five minutes after dosing",1.07
same,drug conjugation of the dose,plasma,up to 89%
same,drug conjugation of the dose,urine,≤ 95%
